Measurements from PMC9201508, “Mechanism of CK2 Inhibition by a Ruthenium-Based Polyoxometalate” (Frontiers in Molecular Biosciences, 2022).
Entries after “also recorded” stand apart in the source; their conditions may differ. Blank lines part the entries; values can stand above or below the molecule they belong to.

Columns and labels:
[1] = Stability monitored by UV-vis in buffered aqueous environment; type: physicochemical; conditions: buffered/saline aqueous environments, up to pH 8.5, over 24 h
Method: Na10[Ru4(H2O)4(μ-O)4(μ-OH)2(γ-SiW10O36)2], Ru4POM, was prepared following a published procedure ([Galiano et al., 2021]). Ru4POM identity was confirmed by FTIR, while its stability was monitored by UV-vis, by using a Cary 100 instrument (Varian), in buffered aqueous environment (25 mM Tris, pH 8.5) over 24 h (Supplementary Figure S6).
Suppl. Fig. 6. UV-vis spectrophotometric monitoring of Ru4POM (5µM) stability in 25 mM Tris and
500 mM NaCl (pH=8.5) over time (up to 24 h). A quartz cuvette with path length 1 cm was used.
(1 picture or pasted object on this page, not shown here)

[2] = target: T1, CK2α (Homo sapiens, UniProt P68400); assay: Isothermal titration calorimetry; type: binding; conditions: 25 mM Tris, 500 mM NaCl
T1 construct: Human CK2α (residues 1-336) was produced as previously reported; made in house; host or cells: E. coli BL21-DE3
T1 sequence (P68400 1-336): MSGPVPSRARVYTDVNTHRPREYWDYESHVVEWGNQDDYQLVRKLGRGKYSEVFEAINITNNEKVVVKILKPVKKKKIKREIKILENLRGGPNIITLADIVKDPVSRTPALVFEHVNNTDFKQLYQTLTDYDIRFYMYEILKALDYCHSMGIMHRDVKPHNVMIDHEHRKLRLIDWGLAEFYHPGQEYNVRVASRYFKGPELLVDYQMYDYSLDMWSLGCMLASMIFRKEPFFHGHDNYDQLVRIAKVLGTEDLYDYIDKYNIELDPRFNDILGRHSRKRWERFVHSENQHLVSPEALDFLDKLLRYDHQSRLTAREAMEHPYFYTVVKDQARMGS
Method: (§1) Recombinant full-length CK2α and tetrameric CK2 (α2β2) [produced as in ([Venerando et al., 2013])] were kindly provided by Dr. Andrea Venerando (University of Parma, Italy). Human CK2α (residues 1-336) was produced as previously reported ([Papinutto et al., 2012]). Briefly, after expression in E. coli BL21-DE3, the protein was purified by two chromatographic steps, with heparin affinity chromatography (5 ml HiTrap Eparin HP column, GE Healthcare) and size-exclusion chromatography (HiLoad 16/60 Superdex 75 pg column, GE Healthcare). Protein eluted in 25 mM Tris, 500 mM NaCl, 1 mM DTT, pH = 8.5 was concentrated to 13.3 mg/ml, flash-frozen in liquid nitrogen and stored at −80°C.
Isothermal titration calorimetry (ITC) experiments were performed using a Malvern PEAQ-ITC microcalorimeter, at 25°C, with a 270 μl sample cell and a computer controlled microsyringe for titrant injections. CK2α (20–30 μM) and Ru4POM (200–400 μM) samples were in 25 mM Tris, 500 mM NaCl, pH = 8.5. After baseline stabilization, a further delay of 60 s was used before the first injection. In each individual titration, a starting Ru4POM injection of 0.4 μl in 0.8 s was followed by other 12 injections of 3 μl with a duration of 6 s each. A delay of 150 s was applied between each Ru4POM injection. Wiseman plot of integrated data was automatically obtained by software analysis (excluding the heat referred to the first 0.4 μl injection) and then it was fitted by theoretical binding curve using the one site model.

[3] = target: T2, CK2 (Homo sapiens, UniProt P68400); assay: Radioactive kinase assay with casein as substrate; type: biochemical; conditions: casein 0.05 mg/ml replaced CK2-tide
T2 construct: made in house
T2 sequence (P68400 1-336): T1 sequence (P68400 1-336)
Method: (§2) For IC50 (concentrations inducing 50% inhibition) analysis, recombinant tetrameric CK2 (α2β2), or C-terminal-deleted CK2α (CK2α^1–336), or full length CK2α (7.5 ng) were incubated with 0.1 mM synthetic peptide substrate RRRADDSDDDDD (CK2-tide), in a phosphorylation buffer containing 50 mM Tris-HCl pH 7.5, 10 mM MgCl2, 20 μM [γ-^33P]ATP (1,000–2,000 cpm/pmol), in a final volume of 20 μl, with increasing concentrations of the inhibitor. In the case of tetrameric CK2, 0.1 M NaCl was also present in the phosphorylation mixture. Controls were performed in the absence of any inhibitor, but with equal volume of vehicle (H2O). Reactions were performed at 30°C for 12 min and stopped by sample absorption on phospho-cellulose papers. Papers were washed three times with 75 mM phosphoric acid and counted in a scintillation counter (PerkinElmer). In the case of casein substrate (used at 0.05 mg/ml concentration), reactions were stopped by the addition of Laemmli loading buffer, samples were analyzed by 11% SDS-PAGE, and radioactive bands were detected and quantified by digital autoradiography (Cyclone plus storage phosphor system, PerkinElmer). IC50 calculation was obtained by analysis of the results with GraphPad Prism 7.0a software.

[4] = target: T3, full-length CK2α (FL-CK2α) (Homo sapiens, UniProt P68400); assay: Radioactive kinase assay, CK2-tide substrate, full-length CK2α; type: biochemical; conditions: CK2-tide substrate 0.1 mM, 20 μM ATP, pH 7.5; mean ± SEM
T3 construct: made in house
Method: as §2

[5] = target: T4, C-terminal-deleted CK2α (CK2α 1-336) (Homo sapiens, UniProt P68400); assay: Radioactive kinase assay, CK2-tide substrate, C-terminal truncated CK2α; type: biochemical; conditions: CK2-tide substrate 0.1 mM, 20 μM ATP, pH 7.5, mean ± SEM
T4 construct: Human CK2α (residues 1-336) was produced as previously reported; made in house; host or cells: E. coli BL21-DE3
T4 sequence (P68400 1-336): T1 sequence (P68400 1-336)
Method: as §1
For IC50 (concentrations inducing 50% inhibition) analysis, recombinant tetrameric CK2 (α2β2), or C-terminal-deleted CK2α (CK2α^1–336), or full length CK2α (7.5 ng) were incubated with 0.1 mM synthetic peptide substrate RRRADDSDDDDD (CK2-tide), in a phosphorylation buffer containing 50 mM Tris-HCl pH 7.5, 10 mM MgCl2, 20 μM [γ-^33P]ATP (1,000–2,000 cpm/pmol), in a final volume of 20 μl, with increasing concentrations of the inhibitor. In the case of tetrameric CK2, 0.1 M NaCl was also present in the phosphorylation mixture. Controls were performed in the absence of any inhibitor, but with equal volume of vehicle (H2O). […]

[6] = target: T5, tetrameric CK2 (α2β2) (Homo sapiens, UniProt P68400); assay: Radioactive kinase assay, CK2-tide substrate, tetrameric holoenzyme; type: biochemical; conditions: 0.1 M NaCl present, mean ± SEM
T5 construct: made in house
Method: as §2

[7] = tested on: endogenous CK2 in HEK-293T cells; assay: Endo-cellular CK2 activity assay (Akt1 phospho-Ser129 Western blot); type: cell-based, human
Method: HEK-293T cells (human embryo kidney fibroblasts) were cultured in an atmosphere containing 5% CO2, maintained in DMEM medium (Sigma), supplemented with 10% (v/v) fetal bovine serum (FBS), 2 mM L-glutamine, 100 U/ml penicillin, and […] streptomycin. Cell treatments with Ru4POM were performed in the culture medium. When used, the cationic transfection reagents PEI (Thermo Scientific) or JetOpitmus (Polyplus-transfection) were mixed with Ru4POM and incubated for 1 h at room temperature, before adding the mix to the cells. After 24 h cells were lysed as previously described ([Zanin et al., 2012]). Protein concentration was determined by the Bradford method.
Endo-cellular CK2 activity was evaluated by assessing the phosphorylation state of the CK2 substrate Akt phospho-Ser129 (Abcam) ([Ruzzene et al., 2010]). For this purpose, equal amounts of proteins from treated cells were loaded on 11% SDS-PAGE, blotted on Immobilon-P membranes (Millipore), processed in Western blot (WB), and detected by chemiluminescence.
Quantitation of the signal was obtained by chemiluminescence detection on ImageQuant LAS 500 (GE Healthcare Life Sciences) and analysis with Carestream Molecular Imaging software (Carestream).

[8] = target: T2, CK2; assay: Kinetics analysis (Michaelis-Menten) with increasing CK2-tide or casein; type: biochemical
Method: as §2
For kinetics analysis, the assays were performed with increasing concentrations of CK2-tide or casein, in the phosphorylation buffer described above, but with 100 μM ATP concentration.

[9] = tested on: T6, recombinant CK2α; assay: Radioactive phosphorylation assay at different pH and NaCl concentration; type: biochemical; conditions: 5 nM Ru4POM
T6 construct: made in house
Method: as §2, with “[…],” for “in a phosphorylation buffer containing 50 mM Tris-HCl pH 7.5,”, “In the case of tetrameric CK2, 0.1 M NaCl was also present in the phosphorylation mixture.” left out

[10] = target: T2, CK2; conditions: number of kinases; ref Battistutta et al., 2011; cited from earlier work
[11] = design: method as in Prudent et al., 2008; conditions: ref Prudent et al., 2008; cited from earlier work

T3 sequence (P68400 whole entry): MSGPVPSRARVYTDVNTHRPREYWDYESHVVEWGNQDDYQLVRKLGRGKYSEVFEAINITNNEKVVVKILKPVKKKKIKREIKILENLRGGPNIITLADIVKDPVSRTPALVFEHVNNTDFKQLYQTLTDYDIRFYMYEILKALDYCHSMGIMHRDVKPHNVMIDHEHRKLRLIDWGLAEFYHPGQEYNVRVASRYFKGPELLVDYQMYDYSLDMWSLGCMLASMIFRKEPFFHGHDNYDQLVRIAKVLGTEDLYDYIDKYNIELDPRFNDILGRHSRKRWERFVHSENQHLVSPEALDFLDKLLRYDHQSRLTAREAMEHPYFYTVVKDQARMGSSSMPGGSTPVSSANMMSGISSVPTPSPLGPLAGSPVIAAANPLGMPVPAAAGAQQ
T5 sequence (P68400 whole entry): as above
T5 sequence (P67870 2-215 partner limits assumed): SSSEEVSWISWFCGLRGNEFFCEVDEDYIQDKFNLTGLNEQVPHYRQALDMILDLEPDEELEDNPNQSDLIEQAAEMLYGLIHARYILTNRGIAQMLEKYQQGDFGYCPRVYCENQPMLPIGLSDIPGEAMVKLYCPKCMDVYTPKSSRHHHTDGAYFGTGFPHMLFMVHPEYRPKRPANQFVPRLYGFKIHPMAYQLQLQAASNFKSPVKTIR

Molecule: [γ-SiW10O36{(C5H7N2OS)(CH2)4CONH(CH2)3Si}2O]^4− [Na Biotin-SiW10]
IC50 [4]: 16.4 ± 1.3 nM

Molecule: (NH4)12[Mo36(NO)4O108(H2O)16] [Mo36POM]
IC50 [4]: > 1000 nM

Molecule: O=C(O)c1ccc2c(c1)nc(Nc1cccc(Cl)c1)c1ccncc12 [CX-4945, silmitasertib]
other kinases inhibited with nanomolar activity [10]: 12

Molecule: (^ n Bu4N)3H[γ-SiW10O36{(C5H7N2OS)(CH2)4CONH(CH2)3Si}2O] [TBA Biotin-SiW10]
IC50 [4]: 5.3 ± 0.6 nM

Molecule: [P2Mo18O62]^6−
chemical stability in an aqueous environment [11]: low chemical stability

Further lines, with some results ahead:

stoichiometry ([2]; pH 8.5): 1.04 ± 0.02
ΔG ([2]; pH 8.5): -7.763 ± 0.11 kcal/mol
ΔH ([2]; pH 8.5): -7.885 ± 0.339 kcal/mol
−TΔS ([2]; pH 8.5): 0.12 ± 0.581 kcal/mol
Kd ([2]; pH 8.5, 25°C, one site model, two experiments, read-out: apparent mean KD): 2090 ± 360 nM
IC50 [3]: 18.5 ± 1.04 nM
IC50 [4]: 3.63 ± 0.17 nM
IC50 [5]: 3.63 ± 0.09 nM
IC50 [6]: 5.57 ± 0.68 nM
cell permeability ([7]; inferred from lack of CK2 inhibition in treated cells): too small cell permeability
mode of inhibition towards substrates ([8]; CK2-tide peptide and casein): competitive inhibition
CK2-TIDE Vmax ([8]; in presence of 5 nM Ru4POM, 100 μM ATP, ± SEM): 15019 ± 1635 cpm
CASEIN Vmax ([8]; in presence of 18 nM Ru4POM, 100 μM ATP, ± SEM): 75417 ± 20117 a.u.
Molecule: Na10[Ru4(H2O)4(μ-O)4(μ-OH)2(γ-SiW10O36)2] [Ru4POM]
stability in aqueous environment [1]: stability was confirmed; also recorded: stable
CK2 inhibition in intact cells ([7]; HEK-293T cells treated with the free compound): do not detect any CK2 inhibition
Akt1 phospho-Ser129 phosphorylation ([7]; HEK-293T, 10 μM Ru4POM, 24 h, combined with PEI or JetOptimus): reduced the phosphorylation of this site
inhibition of CK2 activity ([9]; NaCl 0.2 M, CK2-tide): 29%
inhibition of CK2 activity ([9]; NaCl 0.5 M, CK2-tide): 22%
inhibition of CK2 activity ([9]; pH 7.5, without NaCl, CK2-tide): 75%
inhibition of CK2 activity ([9]; pH 8.5, CK2-tide): 66%

IC50 [4]: 18.2 ± 1.9 nM
Molecule: [γ-SiW10O36{(C16H9)SO2NH(CH2)3Si}2O]^4− [Na (L)Trp-SiW10]

IC50 [4]: 8.5 ± 0.4 nM
Molecule: (S,S)-(^ n Bu4N)4[γ-SiW10O36{(C16H9)SO2NH(CH2)3Si}2O] [TBA (L)Trp-SiW10]

IC50 [4]: 12.8 ± 1.7 nM
Molecule: [γ-SiW10O36{(C16H9)SO2NH(CH2)3Si}2O]^4− [Na (D)Trp-SiW10]
